Measurements reported in PMC10404681, “Intrinsic catalytic properties of histone H3 lysine-9 methyltransferases preserve monomethylation levels under low S-adenosylmethionine” (The Journal of Biological Chemistry, 2023).

Experiments:
EHMT2 catalytic domain = target: T1, EHMT2 catalytic domain (Homo sapiens, UniProt Q96KQ7); assay: Radiometric EZ-tip methyltransferase assay, steady-state kinetics, EHMT2; format: biochemical, H. sapiens; details: SAM varied 0.1–100 μM, EHMT2 25 nM, pH 7.9, 30 °C, n = 3, SD
T1 construct: EHMT2 = 913 to 1193; made in house; host or cells: Rosetta E. coli (plasmid from the laboratory of Peter W. Lewis)
T1 sequence (Q96KQ7 913-1193): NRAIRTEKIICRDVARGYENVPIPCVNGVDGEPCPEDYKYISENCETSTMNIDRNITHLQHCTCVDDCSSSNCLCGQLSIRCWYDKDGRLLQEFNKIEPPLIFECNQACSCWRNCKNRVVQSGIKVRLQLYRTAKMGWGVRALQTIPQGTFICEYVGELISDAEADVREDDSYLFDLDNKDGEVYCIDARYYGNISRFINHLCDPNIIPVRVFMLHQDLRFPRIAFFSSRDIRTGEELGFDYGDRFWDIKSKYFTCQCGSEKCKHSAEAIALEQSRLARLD
From the text: (§1) The H. sapiens EHMT1 catalytic subunit (Addgene plasmid #51314) and H. sapiens SUV39H2 catalytic subunit (Addgene plasmid #25115) E. coli expression plasmids used in this study were acquired from Addgene, made possible through a gift by Cheryl Arrowsmith. The H. sapiens EHMT2 catalytic subunit E. coli expression plasmid used in this study was provided by the laboratory of Peter W. Lewis at the University of Wisconsin-Madison. All remaining histone methyltransferase expression plasmids were generated for this study and will be made freely available from Addgene.
(§2) Michaelis-Menten saturation curves were generated under steady-state conditions with the non-titrated component concentration being present at ≥5× KM specific to each enzyme. 1 × 10^5 CPM values were provided by [methyl-^3H] SAM in each reaction. Reaction times and enzyme concentrations were optimized for each HMT to ensure substrate turnover remained below 20%. […] Enzyme concentrations are calculated for the monomeric form. Reactions were incubated at 30 °C for 20 min before quenching with TFA for a final concentration of 2% v/v TFA. […] The eluates were added to 2 ml of Ultima Gold LSC Cocktail (Sigma-Aldrich) and counted on a scintillation counter (PerkinElmer). […]

SUV39H2 catalytic domain = target: T2, SUV39H2 catalytic domain (Homo sapiens, UniProt Q9H5I1); assay: Radiometric EZ-tip methyltransferase assay, steady-state kinetics, SUV39H2; format: biochemical, H. sapiens; details: SAM varied 0.1–100 μM, SUV39H2 25 nM, pH 7.9, 30 °C, n = 3, SD
T2 construct: host or cells: Rosetta E. coli
T2 sequence (Q9H5I1 162-410): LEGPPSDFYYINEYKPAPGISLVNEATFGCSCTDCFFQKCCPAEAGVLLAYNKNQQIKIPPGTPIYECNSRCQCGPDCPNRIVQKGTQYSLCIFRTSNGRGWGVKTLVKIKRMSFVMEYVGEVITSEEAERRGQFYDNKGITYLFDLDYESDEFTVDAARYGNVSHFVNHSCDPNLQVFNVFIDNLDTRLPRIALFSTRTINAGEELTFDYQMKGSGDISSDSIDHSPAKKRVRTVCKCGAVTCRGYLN
From the text: as §1, §2

SUV39H1 = target: T3, SUV39H1 (Homo sapiens, UniProt O43463); assay: Radiometric EZ-tip methyltransferase assay, steady-state kinetics, SUV39H1; format: biochemical; details: SAM varied 0.1–100 μM, SUV39H1 100 nM, pH 7.9, 30 °C, n = 3, SD
T3 construct: made in house; host or cells: Rosetta E. coli (plasmid generated for this study)
T3 sequence (O43463 1-412): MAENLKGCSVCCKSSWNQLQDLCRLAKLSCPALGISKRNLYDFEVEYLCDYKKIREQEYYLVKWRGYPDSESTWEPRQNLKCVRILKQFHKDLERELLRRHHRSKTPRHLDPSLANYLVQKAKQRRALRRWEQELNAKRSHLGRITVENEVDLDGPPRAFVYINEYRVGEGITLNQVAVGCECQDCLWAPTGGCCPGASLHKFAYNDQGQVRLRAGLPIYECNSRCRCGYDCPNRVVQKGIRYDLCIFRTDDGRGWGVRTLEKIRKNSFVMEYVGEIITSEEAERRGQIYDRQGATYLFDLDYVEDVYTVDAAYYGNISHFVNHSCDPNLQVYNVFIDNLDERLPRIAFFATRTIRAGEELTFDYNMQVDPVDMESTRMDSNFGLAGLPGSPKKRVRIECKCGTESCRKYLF
From the text: as §1, §2

EHMT1 catalytic domain = target: T4, EHMT1 catalytic domain (Homo sapiens, UniProt Q9H9B1); assay: Radiometric EZ-tip methyltransferase assay, steady-state kinetics, EHMT1; format: biochemical, H. sapiens; details: SAM varied 0.1–100 μM, EHMT1 25 nM, pH 7.9, 30 °C, n = 3, SD
T4 construct: EHMT1 = 982 to 1266; host or cells: Rosetta E. coli
T4 sequence (Q9H9B1 982-1266): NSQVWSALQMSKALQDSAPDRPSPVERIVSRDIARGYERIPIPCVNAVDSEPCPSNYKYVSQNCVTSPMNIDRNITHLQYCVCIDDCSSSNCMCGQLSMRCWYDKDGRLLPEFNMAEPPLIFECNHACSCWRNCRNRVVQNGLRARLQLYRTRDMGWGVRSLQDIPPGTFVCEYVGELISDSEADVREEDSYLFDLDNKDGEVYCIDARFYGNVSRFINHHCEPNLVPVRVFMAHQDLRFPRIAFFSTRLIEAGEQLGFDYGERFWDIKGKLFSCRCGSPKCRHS
From the text: as §1, §2

[1] = fixed H3K9me1 peptide H3(1–17) 50 μM
[2] = fixed H3K9un peptide H3(1–17) 50 μM

Compound: C[S+](CC[C@H](N)C(=O)[O-])C[C@H]1O[C@@H](n2cnc3c(N)ncnc32)[C@H](O)[C@@H]1O (some centres unmarked) [SAM, S-adenosylmethionine]
- kcat/KM, SAM (EHMT2 catalytic domain; [1]): 2170 M⁻¹ s⁻¹
- kcat/KM, SAM (EHMT2 catalytic domain; [2]): 6670 M⁻¹ s⁻¹
- kcat/KM, SAM (SUV39H2 catalytic domain; [1]): 6000 M⁻¹ s⁻¹
- kcat/KM, SAM (SUV39H2 catalytic domain; [2]): 14300 M⁻¹ s⁻¹
- kcat/KM, SAM (SUV39H1; [1]): 500 M⁻¹ s⁻¹
- kcat/KM, SAM (SUV39H1; [2]): 1670 M⁻¹ s⁻¹
- kcat/KM, SAM (EHMT1 catalytic domain; [1]): 5000 M⁻¹ s⁻¹
- kcat/KM, SAM (EHMT1 catalytic domain; [2]): 16800 M⁻¹ s⁻¹
